In brackets after ≈: the same amount, converted by molar mass. Like-named read-outs stand apart in the source and are kept apart here. Residues, ends and D or L forms follow the SMILES beside them.
Legend:
[1] = tested on: E. coli ATCC 25922; type: cell-based, Escherichia coli
Source text: (§1) Bacteria were cultivated in Luria-Bertani (LB) broth.

[2] = tested on: E. coli S; type: cell-based, Escherichia coli
Source text: as §1

[3] = tested on: HEK293T cells; test: MTT cytotoxicity assay; type: cell-based, human
Experimental: (§2) To determine the cytotoxicity of the peptides, we used the MTT (3-(4,5)-dimethylthiahiazo (-z-y1)-3,5-di-phenytetrazoliumromide) dye reduction assay against HEK293T cells. In brief, the 100 μL of cells in 96-well plate were incubated for 24 h at 37 °C, 5% CO2, and then peptide solutions (concentrations ranging from 100 to 0.39 μM) were added and further incubated for 72 h. MTT solution (5 mg/mL) was added and further incubated for 4 h. After incubation, the precipitated MTT formazan crystal was dissolved by addition of dimethyl sulfoxide (DMSO). […]

[4] = MTT cytotoxicity assay; type: cell-based, human; details: human
Experimental: as §2

[5] = tested on: A. baumannii 1337; type: cell-based, Acinetobacter baumannii
Source text: as §1

[6] = tested on: A. baumannii 1318; type: cell-based, Acinetobacter baumannii
Source text: as §1

[7] = tested on: sheep red blood cells; test: Hemolysis assay; details: red cells of sheep, 1 h
Experimental: To evaluate the hemolysis effects of peptides, red blood hemolysis was performed as described with minimum modifications. Sterile defibrated sheep blood was purchased from Guangzhou Hongquan Biotechnology Co., LTD. Blood cells were adjusted to 2 × 10^9 cells/mL in phosphate-buffered saline (PBS, pH 7.4). In total, 98 μL sheep red blood cell suspension was incubated with 2 μL of peptides at different concentrations ranging from 3.13 to 100 µM. After incubation for 1 h at 37 °C, the cells were centrifuged and the absorbance of the supernatant was measured at 450 nm. The value for “zero hemolysis” was determined using sterile PBS, while 100% hemolysis was established using 1.5% (v/v) Triton X-100. Hemolysis of testing sample was calculated as the percentage of Triton X-100-induced hemolysis.

[8] = tested on: all tested bacterial strains; details: range over all strains
Source text: The bacterial strains used in this study included the Gram-positive bacteria methicillin resistant Staphylococcus aureus (MRSA) (MRSA ATCC 43300 and 2 clinically isolated strains presented as MRSA USA 300 and MRSA 3393), Gram-negative bacteria Escherichia coli (E. coli ATCC 25922, and 1 clinically isolated strain presented as E. coli S), Klebsiella pneumoniae (K. pneumoniae ATCC 700603, and 1 clinically isolated strain presented as K. pneumoniae 3026), and Acinetobacter baumannii (2 clinically isolated strains presented as A. baumannii 1318 and A. baumannii 1337). Bacteria were cultivated in Luria-Bertani (LB) broth.
The Clinical and Laboratory Standards Institute (CLSI)-defined broth microdilution testing method (M07, 11th edition, 2018) was used to determine MICs for peptides. Briefly, the concentrations of the peptides and ciprofloxacin in the assay wells ranged from 100 μM to 0.01 μM as a 11-point dose response plated as a 2-fold dilution series across the wells of the plate in duplicate for each independent biological replicate. Bacterial susceptibility assays were performed in Cation-Adjusted Mueller Hinton Broth (CAMHB), and using a final cell density of 5 × 10^6 CFU/mL for bacteria[36]. Final assay volumes were 100 μL per well with MICs determined by measuring absorbance at 595 nm with a microplate reader following 18–20 h incubation at 37 °C. […]

[9] = tested on: K. pneumoniae 3026; type: cell-based, Klebsiella pneumoniae
Source text: as §1

[10] = tested on: K. pneumoniae ATCC 700603; type: cell-based, Klebsiella pneumoniae
Source text: as §1

[11] = tested on: MRSA 3393; type: cell-based, Staphylococcus aureus
Source text: as §1

[12] = tested on: MRSA USA 300; type: cell-based, Staphylococcus aureus
Source text: as §1

[13] = tested on: MRSA ATCC 43300; type: cell-based, Staphylococcus aureus
Source text: as §1

[14] = tested on: Gram-negative bacterial strains; type: cell-based
Source text: as §1

[15] = HEK293T cells, OD450, cytotoxicity (Fig 2a), replicates

Row | Compound | MIC Gram- E. coli ATCC 25922 [1] | MIC Gram- E. coli S [2] | toxicity / cytotoxicity against HEK293T cells (in words) [3] | IC50 at 72 h [4] | viability at 72 h, 0.39 µM [4, 15] | viability at 72 h, 0.78 µM [4, 15] | viability at 72 h, 1.57 µM [4, 15] | viability at 72 h, 6.25 µM [4, 15] | viability at 72 h, 12.5 µM [4, 15] | viability at 72 h, 25 µM [4, 15] | MIC Gram- A. b 1337 [5] | MIC Gram- A. b 1318 [6] | HC10 (concentration inducing 10% hemolysis) [7] | MIC Gram- K. p 3026 [9] | MIC Gram- K. p ATCC 700603 [10] | MIC Gram+ MRSA USA 300 [12] | MIC Gram+ MRSA ATCC 43300 ([13]; ATCC 43300) | other results
1 | CC[C@H](C)[C@H](NC(=O)[C@H](CCCNC(=N)N)NC(=O)[C@H](CCCNC(=N)N)NC(=O)[C@H](CC(C)C)NC(=O)[C@H](Cc1ccccc1)NC(=O)[C@@H](N)CCCNC(=N)N)C(=O)N[C@@H](Cc1ccccc1)C(=O)N[C@@H](CCCCN)C(=O)N[C@@H](Cc1ccccc1)C(=O)N[C@@H](Cc1ccccc1)C(=O)N[C@@H](Cc1ccccc1)C(N)=O [HT5] (H-RFLRRIFKFFF-NH2) | 6.25 µM (≈ 9.85 µg/mL) | 6.25 µM (≈ 9.85 µg/mL) | high toxicity | 2.3 µM | 85.5% | 79.4% | 62.7% | 22.6% | 8.57% | 10.4% | 3.13 µM (≈ 4.93 µg/mL) | 3.13 µM (≈ 4.93 µg/mL) | 12.5 µM | 12.5 µM (≈ 19.7 µg/mL) | 12.5 µM (≈ 19.7 µg/mL) | 3.13 µM (≈ 4.93 µg/mL) | 3.13 µM (≈ 4.93 µg/mL) | viability at 72 h, 3.13 µM [4, 15]: 21%; MICs against all tested bacterial strains [8]: 3.13 to 12.5 µM; MIC Gram+ MRSA 3393 [11]; 3393: 3.13 µM (≈ 4.93 µg/mL)
2 | CC[C@H](C)[C@H](NC(=O)[C@H](CCCNC(=N)N)NC(=O)[C@H](CCCNC(=N)N)NC(=O)[C@H](CC(C)C)NC(=O)[C@H](Cc1ccccc1)NC(=O)[C@H](Cc1ccccc1)NC(=O)[C@H](Cc1ccccc1)NC(=O)[C@@H](N)Cc1ccccc1)C(=O)N[C@@H](Cc1ccccc1)C(=O)N[C@@H](CCCNC(=N)N)C(=O)N[C@@H](CCCNC(=N)N)C(N)=O [F-SHf(R^5)-RR] (H-FFFFLRRIFRR-NH2; N-terminus assumed) | 12.5 µM (≈ 20 µg/mL) | 6.25 µM (≈ 10 µg/mL) | high toxicity | 0.5 µM | 69.1% | 45.9% | 6.12% | 3.98% | 2.72% | 3.79% | 12.5 µM (≈ 20 µg/mL) | 12.5 µM (≈ 20 µg/mL) | > 100.0 µM | 12.5 µM (≈ 20 µg/mL) | 25 µM (≈ 40.1 µg/mL) | 1.57 µM (≈ 2.52 µg/mL) | 1.57 µM (≈ 2.52 µg/mL) | viability at 72 h, 50 µM [4, 15]: 2.62%; viability at 72 h, 100 µM [4, 15]: 1.75%; MIC Gram+ MRSA 3393 [11]: 1.57 µM (≈ 2.52 µg/mL); MIC Gram+ MRSA ATCC 43300 [13]: 1.57 µM (≈ 2.52 µg/mL); MICs against the tested Gram-negative bacterial strains [14]: 6.25 to 25 µM

From paper PMC10657444, “Design and evaluation of tadpole-like conformational antimicrobial peptides” (Communications Biology, 2023)
